Source: publication PMC9954146, “Anti-Leukaemic Activity of Rilpivirine Is Mediated by Aurora A Kinase Inhibition” (Cancers, 2023)
Read-outs that look alike come from different tables or passages of the source.

Key:
YES = biological target: T1, YES (Homo sapiens, UniProt P07947); experiment: Radioisotope-based kinase assay (Ki); type: biochemical; conditions: apparent Ki from IC50 and Km (ATP)
T1 construct: purchased Reaction Biology Corporation (assay service)
Description: (§1) Kinome-wide selectivity of rilpivirine was measured using the kinase screening and profiling service of Eurofins Scientific (Le bois l’Evêque 86600. Celle-Lévescault, France) and Ki values were determined using radioisotope-based assays by Reaction Biology Corporation (Malvern, PA, USA). The experimental details of Eurofin Scientific and Reaction Biology services for relevant assays are available at https://www.eurofinsdiscoveryservices.com/services/in-Vitro-assays/kinases/kinase-profiler (accessed on 7 July 2021) and https://www.reactionbiology.com (accessed on 7 July 2021), respectively. Ki values were estimated from the corresponding IC50 values using the Cheng–Prusoff equation [21] and the Km (ATP) of individual kinase was used for IC50 determination.

PIM1 [1] = experiment: Radioisotope-based kinase assay (Ki); type: biochemical; conditions: PIM1 vs Aurora A
Description: as §1

LYN = biological target: T2, LYN (Homo sapiens, UniProt P07948); experiment: Radioisotope-based kinase assay (Ki); type: biochemical; conditions: apparent Ki from IC50 and Km (ATP)
T2 construct: purchased Reaction Biology Corporation (assay service)
Description: as §1

MLK1(h) = biological target: T3, MLK1(h) (Homo sapiens, UniProt P80192); experiment: Kinase panel; type: biochemical; conditions: read-out: % Residual Activity
T3 construct: purchased Eurofins (KinaseProfiler)
Description: as §1

RIPK1(h) = biological target: T4, RIPK1(h) (Homo sapiens, UniProt Q13546); experiment: Kinase panel; type: biochemical; conditions: read-out: % Residual Activity
T4 construct: purchased Eurofins (KinaseProfiler)
Description: as §1

ALK2(h) = biological target: T5, ALK2(h) (Homo sapiens, UniProt Q04771); experiment: Kinase panel; type: biochemical; conditions: read-out: % Residual Activity
T5 construct: purchased Eurofins (KinaseProfiler)
Description: as §1

CDK2/cyclinA(h) = biological target: T6, CDK2/cyclinA(h) (Homo sapiens, UniProt P24941); experiment: Kinase panel; type: biochemical; conditions: read-out: % Residual Activity
T6 construct: purchased Eurofins (KinaseProfiler)
Description: as §1

ULK3(h) = biological target: T7, ULK3(h) (Homo sapiens, UniProt Q6PHR2); experiment: Kinase panel; type: biochemical; conditions: read-out: % Residual Activity
T7 construct: purchased Eurofins (KinaseProfiler)
Description: as §1

[2] = Pharmacokinetic analysis in mice; type: in vivo, mouse
Description: A pharmacokinetic study was performed as described previously. The pharmacokinetics of rilpivirine was determined after administration of single 50 mg/kg oral (PO) and 2 mg/kg intravenous (IV) doses to male BALB/c hairy mice (n = 6 per route). Briefly, three blood samples were collected from both cheeks (left and right) and the heart of each mouse. A validated liquid chromatography-mass spectrometry/mass spectrometry (LC-MS/MS) technique was used to measure the drug concentrations in the plasma. Pharmacokinetic parameters were estimated using compartmental models (Phoenix, Certara, NJ, USA) and analysis was performed with WinNonlin 6.4 software (Princeton, NJ, USA).

[3] = tested on: Aurora A kinase signalling pathway proteins in HL-60 cells; experiment: Western blotting, HL-60 time course and combination; type: cell-based, human; conditions: 10 µM, time course
Description: Western blotting was performed following a method described previously. Briefly, 8 × 10^5 to 1 × 10^6 cells were seeded in petri dishes with 8 to 10 mL of culture medium and incubated overnight at 37 °C, 5% CO2. Then, the cells were treated with the test compounds and further incubated for the specified time point. Cells were then lysed using a lysis buffer containing protease inhibitors, and proteins were extracted by centrifugation. Protein concentrations were determined by using a Bio-Rad DC^TM protein assay kit (Bio-Rad Laboratories, Hercules, CA, USA). A total of 20–30 μg of proteins was loaded onto each well of 4–20% polyacrylamide gels for electrophoresis. Once electrophoresis was completed, gels were placed on pre-soaked polyvinylidene difluoride membranes and blocked with 10% skimmed milk in 1 × Tris-buffered saline and Tween (TBST). Then, the blots were incubated with primary antibodies, followed by washing with TBST for 4 × 20 min. After this, the blots were incubated with the appropriate horseradish peroxidase (HRP)-conjugated secondary antibody, followed by washing again with TBST for 4 × 20 min. The protein bands were then detected with either ECL prime (Amersham^TM ECL^TM prime Western blotting detection reagent) or ECL select (Amersham^TM ECL^TM select Western blotting detection reagent) depending on the abundance of the protein of interest. The blots were imaged using the Bio-Rad ChemiDoc^TM MP imaging system (Bio-Rad Laboratories, Hercules, CA, USA). All the primary and secondary antibodies used in this study were purchased from Cell Signaling Technology (Danvers, MA, USA).

NB4 cells = experiment: Cell cycle analysis (PI, flow cytometry); type: cell-based, human; conditions: 20 μM, 24 h
Description: (§2) To determine the effect of rilpivirine on cell-cycle distribution a flow cytometry-based analysis was performed after staining the untreated and treated cells with propidium iodide (PI) solution [22]. Briefly, 6 × 10^4 cells/well were seeded in 3 mL of medium per well in 6-well plates. After overnight incubation at 37 °C in 5% CO2, the cells were incubated with the test compounds for specified time points. The medium-containing cells were then taken out from the wells and transferred to FACS tubes. Cells were then pelleted by centrifugation at 300 g for 5 min. Afterward, cells were fixed by using 70% (v/v) ice-cold ethanol for 15 min and then again pelleted by centrifugation (300 g for 5 min). Finally, the cells were incubated with 200 µL of PI staining solution (50 μg/mL PI, 0.1% sodium citrate, 0.1 mg/mL RNase A, and 0.1% Triton X-100) for 1.5 h at room temperature in the dark. After the incubation period, the cells were analysed using a CytoFLEX flow cytometer (Beckman Coulter Inc., Brea, CA, USA). CytExpert software version 2.1 was used for data analysis and graph preparation.

U-937 cells = experiment: Cell cycle analysis (PI, flow cytometry); type: cell-based, human; conditions: 20 μM, 24 h
Description: as §2

HL-60 cells = experiment: Cell cycle analysis (PI, flow cytometry); type: cell-based, human; conditions: for G2-M cells: 24 h
Description: as §2

KG1 cells = experiment: Cell cycle analysis (PI, flow cytometry); type: cell-based, human; conditions: 10 µM or 20 µM, 24 h
Description: as §2

K-562 cells = experiment: Cell cycle analysis (PI, flow cytometry); type: cell-based, human; conditions: 20 μM, 24 h
Description: as §2

PIM1 [4] = biological target: PIM1; set-up: method as in PMID 36297298; conditions: apparent Ki from IC50 and Km (ATP); cited from earlier work
Aurora A = biological target: Aurora A; set-up: method as in PMID 36297298; conditions: apparent Ki from IC50 and Km (ATP), cited from earlier work
[5] = male, BALB/c hairy, mouse, plasma, IV, 2 mg/kg single dose
[6] = male, BALB/c hairy, mouse, plasma, PO, 50 mg/kg single dose

T5 sequence (Q04771 21-509): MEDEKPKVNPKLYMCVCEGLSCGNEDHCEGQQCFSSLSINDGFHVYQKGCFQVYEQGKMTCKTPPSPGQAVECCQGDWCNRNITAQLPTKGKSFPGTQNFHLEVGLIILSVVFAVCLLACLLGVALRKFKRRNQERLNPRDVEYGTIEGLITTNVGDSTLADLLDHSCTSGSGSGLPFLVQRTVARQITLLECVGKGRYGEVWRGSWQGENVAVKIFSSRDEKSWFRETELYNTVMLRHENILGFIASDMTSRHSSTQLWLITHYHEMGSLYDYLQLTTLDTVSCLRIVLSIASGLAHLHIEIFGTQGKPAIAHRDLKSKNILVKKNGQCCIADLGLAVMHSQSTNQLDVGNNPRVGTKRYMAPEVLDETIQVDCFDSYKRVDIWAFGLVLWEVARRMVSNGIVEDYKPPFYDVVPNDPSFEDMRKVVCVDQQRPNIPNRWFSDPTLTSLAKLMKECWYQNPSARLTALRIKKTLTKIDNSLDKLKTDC
T3 sequence (P80192 whole entry): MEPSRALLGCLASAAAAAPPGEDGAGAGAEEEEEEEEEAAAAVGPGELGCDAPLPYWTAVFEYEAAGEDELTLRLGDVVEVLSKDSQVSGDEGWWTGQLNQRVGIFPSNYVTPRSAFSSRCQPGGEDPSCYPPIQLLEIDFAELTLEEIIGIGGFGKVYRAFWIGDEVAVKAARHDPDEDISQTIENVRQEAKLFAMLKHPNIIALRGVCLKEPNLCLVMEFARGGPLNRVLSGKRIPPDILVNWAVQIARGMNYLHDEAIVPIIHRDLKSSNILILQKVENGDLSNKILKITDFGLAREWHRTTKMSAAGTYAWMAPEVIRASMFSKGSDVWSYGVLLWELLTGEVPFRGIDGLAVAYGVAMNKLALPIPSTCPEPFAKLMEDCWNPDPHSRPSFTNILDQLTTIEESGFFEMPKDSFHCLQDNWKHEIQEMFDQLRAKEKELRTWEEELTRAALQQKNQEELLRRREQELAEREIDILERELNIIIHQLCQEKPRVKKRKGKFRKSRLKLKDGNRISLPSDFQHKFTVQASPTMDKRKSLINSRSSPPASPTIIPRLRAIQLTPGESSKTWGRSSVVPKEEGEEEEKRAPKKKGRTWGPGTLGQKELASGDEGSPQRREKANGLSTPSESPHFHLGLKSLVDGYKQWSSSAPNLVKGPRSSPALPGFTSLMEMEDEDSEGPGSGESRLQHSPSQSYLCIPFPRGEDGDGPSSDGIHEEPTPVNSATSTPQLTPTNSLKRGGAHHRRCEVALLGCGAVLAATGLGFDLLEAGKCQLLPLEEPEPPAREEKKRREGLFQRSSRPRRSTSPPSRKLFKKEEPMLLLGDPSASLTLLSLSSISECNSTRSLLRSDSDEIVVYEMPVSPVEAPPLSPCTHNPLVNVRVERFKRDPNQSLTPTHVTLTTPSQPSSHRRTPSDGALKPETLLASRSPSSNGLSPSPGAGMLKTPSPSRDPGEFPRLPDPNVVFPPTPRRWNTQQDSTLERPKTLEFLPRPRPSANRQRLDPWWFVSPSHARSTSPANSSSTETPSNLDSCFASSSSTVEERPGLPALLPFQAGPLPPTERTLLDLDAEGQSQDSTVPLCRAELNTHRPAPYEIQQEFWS
T2 sequence (P07948 whole entry): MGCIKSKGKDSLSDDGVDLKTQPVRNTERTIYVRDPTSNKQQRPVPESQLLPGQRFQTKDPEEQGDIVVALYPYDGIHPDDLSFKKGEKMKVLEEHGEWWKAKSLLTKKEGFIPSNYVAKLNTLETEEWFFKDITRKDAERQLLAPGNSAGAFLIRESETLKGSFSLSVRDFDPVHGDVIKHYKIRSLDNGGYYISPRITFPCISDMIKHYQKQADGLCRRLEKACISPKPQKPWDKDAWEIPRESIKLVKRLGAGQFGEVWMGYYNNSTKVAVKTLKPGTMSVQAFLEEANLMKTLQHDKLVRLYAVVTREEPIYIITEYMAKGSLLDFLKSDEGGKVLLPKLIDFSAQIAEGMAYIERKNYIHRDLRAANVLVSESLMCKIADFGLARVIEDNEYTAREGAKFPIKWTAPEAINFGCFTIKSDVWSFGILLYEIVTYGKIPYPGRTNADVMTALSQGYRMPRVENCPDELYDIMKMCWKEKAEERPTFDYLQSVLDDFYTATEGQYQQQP
T1 sequence (P07947 whole entry): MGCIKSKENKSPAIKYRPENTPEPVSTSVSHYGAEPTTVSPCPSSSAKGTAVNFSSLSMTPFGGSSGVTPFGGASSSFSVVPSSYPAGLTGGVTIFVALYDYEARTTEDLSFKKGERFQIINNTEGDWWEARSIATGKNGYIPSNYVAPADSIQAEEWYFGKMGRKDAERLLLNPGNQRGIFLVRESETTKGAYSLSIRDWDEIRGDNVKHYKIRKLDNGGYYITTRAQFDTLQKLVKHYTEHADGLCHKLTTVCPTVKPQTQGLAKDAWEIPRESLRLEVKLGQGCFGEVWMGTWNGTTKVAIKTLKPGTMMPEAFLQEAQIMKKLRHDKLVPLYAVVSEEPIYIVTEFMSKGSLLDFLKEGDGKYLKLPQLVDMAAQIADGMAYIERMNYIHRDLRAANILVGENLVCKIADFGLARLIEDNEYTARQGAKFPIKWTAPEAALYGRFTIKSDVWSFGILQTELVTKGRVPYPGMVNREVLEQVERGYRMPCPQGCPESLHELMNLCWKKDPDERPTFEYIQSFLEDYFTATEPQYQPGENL
T4 sequence (Q13546 whole entry): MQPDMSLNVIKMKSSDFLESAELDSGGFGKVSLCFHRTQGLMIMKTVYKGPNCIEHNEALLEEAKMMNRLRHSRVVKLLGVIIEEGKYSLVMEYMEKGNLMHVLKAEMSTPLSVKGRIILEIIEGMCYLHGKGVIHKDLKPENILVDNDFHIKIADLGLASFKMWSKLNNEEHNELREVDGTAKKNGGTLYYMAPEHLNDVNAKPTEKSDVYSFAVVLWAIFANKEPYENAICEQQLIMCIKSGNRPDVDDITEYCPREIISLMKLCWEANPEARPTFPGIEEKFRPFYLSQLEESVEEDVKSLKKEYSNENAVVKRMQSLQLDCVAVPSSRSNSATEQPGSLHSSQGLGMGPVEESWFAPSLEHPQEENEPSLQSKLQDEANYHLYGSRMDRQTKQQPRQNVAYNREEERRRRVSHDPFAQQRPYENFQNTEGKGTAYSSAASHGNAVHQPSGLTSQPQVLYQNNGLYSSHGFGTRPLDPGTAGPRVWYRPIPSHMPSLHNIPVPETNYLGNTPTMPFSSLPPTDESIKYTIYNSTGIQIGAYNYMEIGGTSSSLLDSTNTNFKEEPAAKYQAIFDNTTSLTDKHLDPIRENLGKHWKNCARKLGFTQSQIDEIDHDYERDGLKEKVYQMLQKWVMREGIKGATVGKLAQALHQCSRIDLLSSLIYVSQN
T7 sequence (Q6PHR2 whole entry): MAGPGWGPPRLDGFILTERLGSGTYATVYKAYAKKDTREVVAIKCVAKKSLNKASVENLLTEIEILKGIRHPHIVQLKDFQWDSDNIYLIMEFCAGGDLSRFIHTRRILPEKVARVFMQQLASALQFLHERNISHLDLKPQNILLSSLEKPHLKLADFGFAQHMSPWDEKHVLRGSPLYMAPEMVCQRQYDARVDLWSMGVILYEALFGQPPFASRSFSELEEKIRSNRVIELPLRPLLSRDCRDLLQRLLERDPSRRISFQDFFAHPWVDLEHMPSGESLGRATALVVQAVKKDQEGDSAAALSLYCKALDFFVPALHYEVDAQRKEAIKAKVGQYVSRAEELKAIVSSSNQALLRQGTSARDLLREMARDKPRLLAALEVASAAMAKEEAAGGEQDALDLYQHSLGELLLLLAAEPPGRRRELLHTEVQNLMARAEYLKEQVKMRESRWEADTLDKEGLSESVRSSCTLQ

SMILES: Cc1cc(/C=C/C#N)cc(C)c1Nc1ccnc(Nc2ccc(C#N)cc2)n1 [rilpivirine, (E)-4-((4-((4-(2-cyanoethenyl)-2,6-dimethylphenyl)amino)pyrimidin-2-yl)amino)benzonitrile]
- Ki (YES): 1.57 µM
- potency against PIM1 relative to Aurora A kinase (PIM1 [1]): four-and-a-half-fold less potent
- Ki (LYN): 0.93 µM
- remaining activity at 1 µM (MLK1(h)): 81%
- remaining activity at 1 µM (RIPK1(h)): 91%
- remaining activity at 1 µM (ALK2(h)): 91%
- remaining activity at 1 µM (CDK2/cyclinA(h)): 87%
- remaining activity at 1 µM (ULK3(h)): 94%
- Cmax ([2]; IV, 2 mg/kg single dose, 2 mg/kg): > 20 µM
- Cmax ([2]; PO, 50 mg/kg single dose, 50 mg/kg): > 20 µM
- AUC(0-t) [2, 5]: 20 µM·h
- Tmax [2, 5]: 0.033 h
- half-life [2, 5]: 1.3 h
- AUC(0-t) [2, 6]: 247 µM·h
- Tmax [2, 6]: 1.5 h
- bioavailability [2, 6]: 49.1%
- half-life [2, 6]: 4.91 h
- Cmax ([2]; male, BALB/c hairy, mouse, plasma, iv, 2 mg/kg, 2 mg/kg single dose): 22.4 µM
- Cmax ([2]; male, BALB/c hairy, mouse, plasma, po, 50 mg/kg, 50 mg/kg single dose): 33.3 µM
- time from which PARP cleavage was detected [3]: ≥ 12 h
- time of maximum induction of phospho-Histone H3 (Ser10) [3]: 18 h
- time until inhibition of Aurora-A autophosphorylation was evident [3]: ≤ 6 h
- G2-M cells (NB4 cells): 55.25%
- G2-M cells (U-937 cells): 36.61%
- G2-M cells (HL-60 cells; 5 μM): 31.15%
- G2-M cells (HL-60 cells; 10 µM): 40.70%
- time of maximum accumulation in the G2/M phase (HL-60 cells; 10 µM, time course): 16 h
- G2-M cells (HL-60 cells; 20 μM): 46.32%
- cell-cycle arrest (KG1 cells): induced G2/M cell-cycle arrest
- G2-M cells (K-562 cells): 46.23%
- Ki (PIM1 [4]): 0.52 µM
- Ki (Aurora A): ~0.116 µM
- Ki (Aurora A; listed as Rilpivirine): 0.12 µM
